In ChEMBL document CHEMBL1201862, “PubChem BioAssay data set” (2004):
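Cultured in 96-well plates, cells were exposed to test compound for 48 hours across five concentrations. The concentration for 50% growth inhibition is given as GI50.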 The source made the active and inactive calls. Cut-off read from the data, not from the text of the source: active = GI50 up to about 1.1 µM and inactive = higher.

Legend:
Experiment in all cases: NCI tumour cell line growth inhibition, 48 h
786-0 = tested on: 786-0
A549 = tested on: A549
CCRF-CEM = tested on: CCRF-CEM
COLO 205 = tested on: COLO 205
DU-145 = tested on: DU-145
HCC 2998 = tested on: HCC 2998
MDA-MB-435 = tested on: MDA-MB-435
MOLT-4 = tested on: MOLT-4
NCI/ADR-RES = tested on: NCI/ADR-RES
OVCAR-5 = tested on: OVCAR-5
SK-MEL-2 = tested on: SK-MEL-2
SN12C = tested on: SN12C
T47D = tested on: T47D
TK-10 = tested on: TK-10
UACC-257 = tested on: UACC-257
HOP-92 = tested on: HOP-92
NCI-H522 = tested on: NCI-H522
SF-295 = tested on: SF-295
SF-539 = tested on: SF-539
HL-60 = tested on: HL-60

Structure (SMILES) | GI50 (786-0) | GI50 (A549) | GI50 (CCRF-CEM) | GI50 (COLO 205) | GI50 (DU-145) | GI50 (HCC 2998) | GI50 (MDA-MB-435) | GI50 (MOLT-4) | GI50 (NCI/ADR-RES) | GI50 (OVCAR-5) | GI50 (SK-MEL-2) | GI50 (SN12C) | GI50 (T47D) | GI50 (TK-10) | GI50 (UACC-257) | GI50 (HOP-92) | GI50 (NCI-H522) | GI50 (SF-295) | GI50 (SF-539) | GI50 (HL-60)
CO[C@H]1/C=C/O[C@@]2(C)Oc3c(C)c(O)c4c(O)c(c(/C=N/N5CCN(C)CC5)c(O)c4c3C2=O)NC(=O)/C(C)=C\C=C\[C@H](C)[C@H](O)[C@@H](C)[C@@H](O)[C@@H](C)[C@H](OC(C)=O)[C@@H]1C [RIFAMPIN] | > 100 µM (inactive) | > 100 µM (inactive) | 26.2 µM (inactive) | 82.6 µM (inactive) | > 100 µM (inactive) | 72.6 µM (inactive) | > 100 µM (inactive) | 68.7 µM (inactive) | > 100 µM (inactive) | > 100 µM (inactive) | > 100 µM (inactive) | > 100 µM (inactive) | > 100 µM (inactive) | > 100 µM (inactive) | 80.5 µM (inactive) | – | – | – | – | –
CC(C)(C)OC(=O)Cn1ncn(NC(=O)Cc2ccccc2)c1=S | > 10 µM (inactive) | > 10 µM (inactive) | > 10 µM (inactive) | > 10 µM (inactive) | > 10 µM (inactive) | > 10 µM (inactive) | > 10 µM (inactive) | > 10 µM (inactive) | > 10 µM (inactive) | > 10 µM (inactive) | – | > 10 µM (inactive) | > 10 µM (inactive) | > 10 µM (inactive) | > 10 µM (inactive) | > 10 µM (inactive) | > 10 µM (inactive) | > 10 µM (inactive) | > 10 µM (inactive) | –
COC(=O)c1ccccc1CC1Cc2ccc3c(c2C1=O)CCCC3 (configuration not stated) | 35.2 µM (inactive) | 34.3 µM (inactive) | 23.8 µM (inactive) | 34 µM (inactive) | 48.4 µM (inactive) | 44.3 µM (inactive) | 34.6 µM (inactive) | 10.4 µM (inactive) | 23.6 µM (inactive) | > 100 µM (inactive) | 24.7 µM (inactive) | 37.2 µM (inactive) | 13.8 µM (inactive) | 51.4 µM (inactive) | 29.5 µM (inactive) | – | 22.6 µM (inactive) | 32 µM (inactive) | 62.1 µM (inactive) | 12.9 µM (inactive)
CCOP(=O)(OCC)/C(C#N)=C/c1ccnc2ccccc12 | 20.4 µM (inactive) | > 100 µM (inactive) | – | 18.1 µM (inactive) | 34.8 µM (inactive) | > 100 µM (inactive) | 16.4 µM (inactive) | > 100 µM (inactive) | 20.5 µM (inactive) | 22.5 µM (inactive) | 25 µM (inactive) | 28.6 µM (inactive) | 55 µM (inactive) | 47.1 µM (inactive) | 51.3 µM (inactive) | 18.4 µM (inactive) | 21.2 µM (inactive) | 24.2 µM (inactive) | 26.5 µM (inactive) | –
Nc1ccc(CCN2CCN(CCCc3ccccc3)CC2)cc1 | 44.3 µM (inactive) | > 100 µM (inactive) | 48.2 µM (inactive) | 27.7 µM (inactive) | 70.3 µM (inactive) | 34.4 µM (inactive) | > 100 µM (inactive) | 50.4 µM (inactive) | 86.9 µM (inactive) | > 100 µM (inactive) | > 100 µM (inactive) | > 100 µM (inactive) | 14.7 µM (inactive) | > 100 µM (inactive) | 62.4 µM (inactive) | – | 39.2 µM (inactive) | > 100 µM (inactive) | 80.5 µM (inactive) | 26.6 µM (inactive)
O=C(O)CNc1ccc2c(c1)Cc1cc(Br)ccc1-2 | 39.6 µM (inactive) | 21.3 µM (inactive) | 22.1 µM (inactive) | 21.1 µM (inactive) | 25.9 µM (inactive) | – | 15.3 µM (inactive) | 0.746 µM (active) | 25.6 µM (inactive) | 27.5 µM (inactive) | 26 µM (inactive) | 22.7 µM (inactive) | 20.4 µM (inactive) | 31.1 µM (inactive) | 22.8 µM (inactive) | 25.6 µM (inactive) | 18.5 µM (inactive) | 24.5 µM (inactive) | 23.7 µM (inactive) | 23.4 µM (inactive)
O=C(Nc1ccc(Cl)cc1)Oc1ccc(C(=S)Nc2ccc(Br)cc2)cc1 | 16 µM (inactive) | 10 µM (inactive) | 3.04 µM (inactive) | 9.75 µM (inactive) | 25.8 µM (inactive) | 15.4 µM (inactive) | 12.4 µM (inactive) | 4.44 µM (inactive) | 9.53 µM (inactive) | 4.05 µM (inactive) | 6.62 µM (inactive) | – | 10.5 µM (inactive) | – | 15.5 µM (inactive) | – | 10.4 µM (inactive) | 0.438 µM (active) | 15.5 µM (inactive) | 1.61 µM (inactive)
CCOC(=O)C1(F)S(=O)(=O)OCCOS1(=O)=O | > 100 µM (inactive) | > 100 µM (inactive) | – | > 100 µM (inactive) | > 100 µM (inactive) | > 100 µM (inactive) | > 100 µM (inactive) | > 100 µM (inactive) | > 100 µM (inactive) | > 100 µM (inactive) | > 100 µM (inactive) | > 100 µM (inactive) | > 100 µM (inactive) | > 100 µM (inactive) | > 100 µM (inactive) | – | > 100 µM (inactive) | > 100 µM (inactive) | > 100 µM (inactive) | –
